Measured values reported in patent publication US20060029690A1, “Buckwheat compound and method of obtaining the same for treatment of hyperglycemia” (priority 2004, published 2006).
Like-named read-outs stand apart in the source and are kept apart here.

Experiments:
alloxan diabetic mice [1] = test: Blood glucose level of alloxan diabetic mice at day 7 and 14; format: in vivo; details: metformin 200 mg/kg
Experimental: (§1) The animals were made diabetic by a single intravenous injection of 70 mg/kg alloxan into the tail vein. After a period of 4 days, the treated mice were fasted for 2 hours, then the blood sample was taken from the treated mice intravenously. The blood glucose concentration was determined using Glucose Oxidase Peroxidase method. The mice with the blood glucose concentration above 200 mg/dl were marked diabetic mice and were used for further experiments.
(§2) The mice were divided into 5 groups, each group having 9 mice.
(§3) Group 5 received reagent (3) at the dose of 5 g/kg (p.o.).
(§4) At day 7 and 14, measurements of blood glucose concentration were taken after fasting for 2.5 and 5 hours. The change of glucose concentration by percentage was compared against the control group. Blood triglyceride and cholesterol concentrations were tested at day 14 (enzymatic method). Glucose tolerance test (2.0 g/kg, p.o.) was conducted at day 19. First, the mice were fasted for half an hour before the administration of control and test substances. Two and half hours later, the mice received glucose at the dose of 2 g/kg, po. Blood samples were taken at 0, 30, 60, 120 minutes after administration of the glucose. Blood glucose concentration (mg/dl) of the mice were determined and the related measurements of Area Under the Curve (AUC) were estimated. The serum superoxide dismutase (SOD) level of blood samples taken at 0 minute was tested. Glucose tolerance test was conducted again at day 22. The mice were fasted for 1 hour before administration. One and half hour after administration, the mice received glucose at the dose of 2 g/kg, po Blood samples were taken at 0, 30 60, 120 minutes.

alloxan diabetic mice [2] = test: Blood lipid level (cholesterol, triglyceride) of alloxan diabetic mice at day 14; format: in vivo; details: metformin 200 mg/kg, others 5000 mg/kg
Experimental: as §1, §2, §3
as §4, with “The serum superoxide dismutase (SOD) level of blood samples taken at 0 minute was tested. Glucose tolerance test was conducted again at day 22. The mice were fasted for 1 hour before administration. One and half hour after administration, the mice received glucose at the dose of 2 g/kg, po Blood samples were taken at 0, 30 60, 120 minutes.” left out

alloxan diabetic mice [3] = test: Serum SOD level of alloxan diabetic mice at day 19; format: in vivo; details: metformin 200 mg/kg, others 5000 mg/kg
Experimental: as §1, §2, §3
as §4, with “The serum superoxide dismutase (SOD) level of blood samples taken at 0 minute was tested. Glucose tolerance test was conducted again at day 22. The mice were fasted for 1 hour before administration. One and half hour after administration, the mice received glucose at the dose of 2 g/kg, po Blood samples were taken at 0, 30 60, 120 minutes.” left out

alloxan diabetic mice [4] = test: Glucose tolerance test and AUC in alloxan diabetic mice (day 19 and day 22); format: in vivo; details: for Blood glucose, glucose tolerance test, 0 min: metformin 200 mg/kg, others 5 g/kg
Experimental: as §1, §2, §3, §4

STZ diabetic rats [5] = test: Fasting blood glucose concentration in STZ diabetic rats after 7 days (Example 1); format: in vivo, rat; details: oral administration for 7 days, metformin 0.2 g/kg, extracts 5.0 g/kg
Experimental: (§5) The treatments were administered once every day.
At day 7, the rats in groups 1, 2 and 3 were fasted and blood samples were taken at 2.5 hours and 5 hours after fasting began. Blood glucose concentrations (mg/dl) in these samples were then determined.

STZ diabetic rats [6] = test: Non-fasting blood glucose, serum SOD activity and catalase (CAT) activity in STZ diabetic rats at day 19; format: in vivo, rat; details: oral administration for 19 days
Experimental: as §5
At day 19, blood samples were taken, and blood glucose concentrations without fasting, the activities of SOD and catalase (CAT) levels were determined.

STZ diabetic rats [7] = test: Oral glucose tolerance test in STZ diabetic rats after 12 days (Example 2); format: in vivo, rat; details: 12 days oral, dosage 0.2 g/kg
Experimental: […] were divided according to the blood glucose concentration under fasting conditions.
The STZ diabetic rats were divided into 4 groups, each group having 10 rats.
At day 12, oral glucose tolerance tests (2.0 g/kg) were conducted. […] 1 hour later, the rats received glucose at the dose of 2 g/kg (p.o.). Blood samples were taken at 0, 30 and 120 min respectively.

STZ diabetic rats [8] = details: 7 days oral, dosage 0.2 g/kg
Experimental: The mice were divided according to the blood glucose concentration under fasting conditions. The difference between the average blood glucose concentrations of the 4 groups of rats was less than 10 mg/dl.
At day 7, fasting blood glucose concentration was tested after 2.5 and 5 hours of fasting. The change of glucose concentration by percentage was compared against the control group.

[9] = Body weight of STZ diabetic rats after 9, 14 and 21 days; details: STZ diabetic rat; metformin 0.2 g/kg, flavonoids 4.0 g/kg, extracts 5.0 g/kg
Experimental: (§6) Male rats (Sprague-Dwaley, male), weighing 120 to 140 g, were purchased from VTLF Experiment Animal Technology Center Company Ltd., Beijing P. R. China The animals were made diabetic by a single intraperitoneal injection of streptozocin (freshly prepared in 0.1 M citrate buffer (pH 4.5) at the dose of 58 mg/kg). After a period of 4 days, the treated rats were fasted for 2.5 hours, then blood samples were taken from the treated rats intravenously. Blood glucose concentrations were determined using the Glucose Oxidase Peroxidase method. The rats with blood glucose concentrations above 190 mg/dl were marked as diabetic rats and used for further experiments.
(§7) The rats were divided into 6 groups of 10 rats per group. The difference in the average blood glucose concentrations among the 6 groups was less than 10 mg/dl. Group 1 served as the negative control and received water. […] The remaining four groups received reagents (1) to (4) as listed in Section 1.3.1 above. Reagents (1) and (2) were administered at a dose of 4 g/kg, while (3) and (4) were administered at a dose of 5 g/kg. The treatments were administered once every day.

STZ diabetic rats [10] = test: Glucose tolerance test and AUC in STZ diabetic rats (day 14 and day 21)
Experimental: as §6, §7
At day 14, glucose tolerance tests were conducted. The rats were fasted for 1 hour before receiving the reagents at dosages of 2.0 g/kg (p.o.). Blood samples were taken at 0, 30, 60, and 120 min after receiving the reagents. Blood glucose concentrations (mg/dl) were determined and the related AUC were calculated.
At day 21, glucose tolerance tests were conducted. The rats were fasted for 1 hour, then received their respective reagents at the dose of 5 g/kg (p.o.). 2.5 hours after administration of reagent the rats received glucose at a dose of 2 g/kg (p.o.). Blood samples were taken at 0, 30, and 120 minutes after glucose administration. Blood glucose concentrations (mg/dl) were determined and the related AUC were calculated.

[11] = day 19, glucose 2 g/kg p.o. 2.5 h after administration
[12] = day 22, glucose 2 g/kg p.o. 1.5 h after administration
[13] = oral administration for 14 days
[14] = oral administration for 21 days

CN(C)C(=N)N=C(N)N [Metformin, metformin]
effective in lowering blood glucose concentration in alloxan diabetic mice (in words) (alloxan diabetic mice [1]; continuously for 7 and 14 days, extracts 5 g/kg): significant glucose-lowering effect | Blood glucose concentration at day 7, 2.5 hr after administering (alloxan diabetic mice [1]; day 7, 2.5 hr, p.o. once daily, extracts and flavonoid B 5000 mg/kg): 216.8 ± 78.2 mg/dL | Blood glucose concentration at day 7, 5 hr after administering (alloxan diabetic mice [1]; day 7, 5 hr, p.o. once daily, others 5000 mg/kg): 182.8 ± 88.1 mg/dL | Blood glucose concentration at day 14, 2.5 hr after administering (alloxan diabetic mice [1]; day 14, 2.5 hr, p.o. once daily, others 5000 mg/kg): 281.5 ± 60.9 mg/dL | Blood glucose concentration at day 14, 5 hr after administering (alloxan diabetic mice [1]; day 14, 5 hr, p.o. once daily, others 5000 mg/kg): 221.7 ± 65.9 mg/dL | blood glucose change by percentage, day 7, 2.5 hr (alloxan diabetic mice [1]; versus control group, day 7, 2.5 hr, others 5000 mg/kg): 34% | blood glucose change by percentage, day 7, 5 hr (alloxan diabetic mice [1]; versus control group, day 7, 5 hr, others 5000 mg/kg): 32.4% | blood glucose change by percentage, day 14, 2.5 hr (alloxan diabetic mice [1]; versus control group, day 14, 2.5 hr, others 5000 mg/kg): 21.2% | blood glucose change by percentage, day 14, 5 hr (alloxan diabetic mice [1]; versus control group, day 14, 5 hr, others 5000 mg/kg): 21.3% | Blood cholesterol (alloxan diabetic mice [2]): 159.8 ± 48.7 mg/dL | Blood triglyceride (alloxan diabetic mice [2]): 132.8 ± 34.2 mg/dL | Serum SOD (alloxan diabetic mice [3]): 78.3 ± 26.5 u/mg | Blood glucose, glucose tolerance test, 30 min (alloxan diabetic mice [4]; [11]): 544.4 ± 45.3 mg/dL | Blood glucose, glucose tolerance test, 60 min (alloxan diabetic mice [4]; [11]): 512.0 ± 76.9 mg/dL | Blood glucose, glucose tolerance test, 120 min (alloxan diabetic mice [4]; [11]): 408.4 ± 71.3 mg/dL | Blood glucose, glucose tolerance test, 0 min (alloxan diabetic mice [4]; [11]): 346.8 ± 68.3 mg/dL | Blood glucose, glucose tolerance test, 30 min (alloxan diabetic mice [4]; [12]): 474.5 ± 74.4 mg/dL | Blood glucose, glucose tolerance test, 60 min (alloxan diabetic mice [4]; [12]): 450.7 ± 80.1 mg/dL | Blood glucose, glucose tolerance test, 120 min (alloxan diabetic mice [4]; [12]): 358.6 ± 88.3 mg/dL | Blood glucose, glucose tolerance test, 0 min (alloxan diabetic mice [4]; [12]): 377.6 ± 87.6 mg/dL | Fasting blood glucose concentration, 5.0 hr. (STZ diabetic rats [5]; flavonoids 4.0 g/kg): 185.6 ± 78.8 mg/dL | fasting blood glucose concentration, 2.5 hr. (STZ diabetic rats [5]; flavonoids A and B 4.0 g/kg): 261.1 ± 45.7 mg/dL | CAT activity (STZ diabetic rats [6]): 64.6 ± 12.5 U/gHb | Serum SOD activity (STZ diabetic rats [6]): 164.8 ± 16.9 NU/ml | Non-fasting blood glucose concentration (STZ diabetic rats [6]; metformin 0.2 g/kg, flavonoids 4.0 g/kg, extracts 5.0 g/kg): 340.5 ± 40.7 mg/dL | AUC (STZ diabetic rats [7]): 800.9 ± 103.2 mg·h/dL | Fasting blood glucose concentration, oral glucose tolerance, 0 min (STZ diabetic rats [7]): 398.4 ± 36.6 mg/dL | Fasting blood glucose concentration, oral glucose tolerance, 30 min (STZ diabetic rats [7]): 458.4 ± 59.7 mg/dL | Fasting blood glucose concentration, oral glucose tolerance, 120 min (STZ diabetic rats [7]): 323.9 ± 51.2 mg/dL | reduction of AUC by percentage (STZ diabetic rats [7]; versus control): (14.2) % | fasting blood glucose concentration, 2.5 hr. (STZ diabetic rats [8]): 357.2 ± 51.5 mg/dL | fasting blood glucose concentration, 5 hr. (STZ diabetic rats [8]): 288.9 ± 68.8 mg/dL | reduction of blood glucose concentration by percentage, 2.5 hr. (STZ diabetic rats [8]; versus control): (11.7) % | reduction of blood glucose concentration by percentage, 5 hr. (STZ diabetic rats [8]; versus control): (22.5) % | weight at day 9 [9]: 203.3 ± 22.3 g | weight at day 14 [9]: 200.4 ± 29.4 g | AUC of blood glucose (STZ diabetic rats [10]; [13]): 652.5 ± 133.8 mg·h/dL | blood glucose concentration, glucose tolerance test, 30 min (STZ diabetic rats [10]; [13]): 356.2 ± 93.3 mg/dL | blood glucose concentration, glucose tolerance test, 60 min (STZ diabetic rats [10]; [13]): 320.9 ± 64.6 mg/dL | blood glucose concentration, glucose tolerance test, 120 min (STZ diabetic rats [10]; [13]): 296.6 ± 72.6 mg/dL | blood glucose concentration, glucose tolerance test, 0 min (STZ diabetic rats [10]; oral administration for 14 days, metformin 0.2 g/kg, flavonoids 4.0 g/kg, extracts 5.0 g/kg): 341.8 ± 44.8 mg/dL | AUC of blood glucose (STZ diabetic rats [10]; [14]): 645.4 ± 122.0 mg·h/dL | blood glucose concentration, oral glucose tolerance, 30 min (STZ diabetic rats [10]; [14]): 358.0 ± 77.3 mg/dL | blood glucose concentration, oral glucose tolerance, 120 min (STZ diabetic rats [10]; [14]): 279.8 ± 51.6 mg/dL
